Experimental data as given in patent publication US10750743B2, “Pyridazinone herbicides” (E.I. DU PONT DE NEMOURS AND COMPANY, priority 2015, dated 2020).

What was measured:
Type in all cases: in vivo
[1] = system: ryegrass, It. (Italian ryegrass, Lolium multiflorum); assay: Test A postemergence application, visual injury rating; settings: 0 to 100 scale, 0 no effect, 100 complete control
Procedure, shortened: (§1)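 Seeds sown in a loam soil–sand blend received a directed preemergence soil spray of test chemical in a non-phytotoxic solvent mixture with surfactant. Postemergence plants were sprayed at 2 to 10 cm, one- to two-leaf stage. After approximately 10 d in greenhouse, injury was visually rated 0 (no effect) to 100 (complete control) against untreated controls.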

[2] = system: kochia (Kochia scoparia); assay: as above; settings: 0 to 100 scale, 0 no effect, 100 complete control
Procedure, shortened: as §1

[3] = system: ragweed (common ragweed, Ambrosia elatior); assay: as above; settings: 0 to 100 scale, 0 no effect, 100 complete control
Procedure, shortened: as §1

[4] = system: wheat (Triticum aestivum); assay: as above; settings: 0 to 100 scale, 0 no effect, 100 complete control
Procedure, shortened: as §1

[5] = system: blackgrass (Alopecurus myosuroides); assay: as above; settings: 0 to 100 scale, 0 no effect, 100 complete control
Procedure, shortened: as §1

[6] = system: galium (catchweed bedstraw, Galium aparine); assay: as above; settings: 0 to 100 scale, 0 no effect, 100 complete control
Procedure, shortened: as §1

[7] = system: corn (Zea mays); assay: as above; settings: 0 to 100 scale, 0 no effect, 100 complete control
Procedure, shortened: as §1

[8] = system: foxtail, giant (giant foxtail, Setaria faberii); assay: as above; settings: 0 to 100 scale, 0 no effect, 100 complete control
Procedure, shortened: as §1

[9] = system: barnyardgrass (Echinochloa crus-galli); assay: as above; settings: 0 to 100 scale, 0 no effect, 100 complete control
Procedure, shortened: as §1

[10] = system: pigweed (Amaranthus retroflexus); assay: as above; settings: 0 to 100 scale, 0 no effect, 100 complete control
Procedure, shortened: as §1

[11] = system: ryegrass, It. (Italian ryegrass, Lolium multiflorum); assay: Test A preemergence, directed soil spray, visual injury rating; settings: 0 is no effect, 100 is complete control
Procedure, shortened: as §1

[12] = system: kochia (Kochia scoparia); assay: as above; settings: 0 is no effect, 100 is complete control
Procedure, shortened: as §1

[13] = system: ragweed (common ragweed, Ambrosia elatior); assay: as above; settings: 0 is no effect, 100 is complete control
Procedure, shortened: as §1

[14] = system: foxtail, giant (giant foxtail, Setaria faberii); assay: as above; settings: 0 is no effect, 100 is complete control
Procedure, shortened: as §1

[15] = system: barnyardgrass (Echinochloa crus-galli); assay: as above; settings: 0 is no effect, 100 is complete control
Procedure, shortened: as §1

[16] = system: pigweed (Amaranthus retroflexus); assay: as above; settings: 0 is no effect, 100 is complete control
Procedure, shortened: as §1

[17] = system: sedge, umbrella (small-flower umbrella sedge, Cyperus difformis); assay: Test B flooded paddy test, visual rating; settings: Flood, 250 g ai/ha, applied to paddy water, rated after 13 to 15 d
Procedure, shortened: (§2)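 Plants at the 2-leaf stage were flooded to 3 cm above soil, and test compounds were applied directly into the paddy water, which was held at that depth throughout. After 13 to 15 d in a greenhouse, injury was rated visually against untreated controls on a 0–100 scale (0 no effect, 100 complete control).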

[18] = system: rice (Oryza sativa); assay: Test B flooded paddy test, visual rating; settings: Flood, 250 g ai/ha, applied to paddy water, rated after 13 to 15 d
Procedure, shortened: as §2

[19] = system: ducksalad (Heteranthera limosa); assay: Test B flooded paddy test, visual rating; settings: Flood, 250 g ai/ha, applied to paddy water, rated after 13 to 15 d
Procedure, shortened: as §2

[20] = system: barnyardgrass (Echinochloa crus-galli); assay: Test B flooded paddy test, visual rating; settings: Flood, 250 g ai/ha, applied to paddy water, rated after 13 to 15 d
Procedure, shortened: as §2

SMILES | Ryegrass, It. plant response rating ([1]; 125 g ai/ha) | Kochia plant response rating ([2]; 125 g ai/ha) | Ragweed plant response rating ([3]; 125 g ai/ha) | Wheat plant response rating ([4]; 125 g ai/ha) | Blackgrass plant response rating ([5]; 125 g ai/ha) | Galium plant response rating ([6]; 125 g ai/ha) | Corn plant response rating ([7]; 125 g ai/ha) | Foxtail, Giant plant response rating ([8]; 125 g ai/ha) | Barnyardgrass plant response rating ([9]; 125 g ai/ha) | Pigweed plant response rating ([10]; 125 g ai/ha) | Plant response rating (0 to 100 scale), Ryegrass, It. ([11]; 125 g ai/ha) | Plant response rating (0 to 100 scale), Kochia ([12]; 125 g ai/ha) | Plant response rating (0 to 100 scale), Ragweed ([13]; 125 g ai/ha) | Plant response rating (0 to 100 scale), Foxtail, Giant ([14]; 125 g ai/ha) | Plant response rating (0 to 100 scale), Barnyardgrass ([15]; 125 g ai/ha) | Plant response rating (0 to 100 scale), Pigweed ([16]; 125 g ai/ha) | Sedge, Umbrella plant response rating (0 to 100 scale, 0 is no effect, 100 is complete control) [17] | Rice plant response rating (0 to 100 scale, 0 is no effect, 100 is complete control) [18] | Ducksalad plant response rating (0 to 100 scale, 0 is no effect, 100 is complete control) [19] | Barnyardgrass plant response rating (0 to 100 scale, 0 is no effect, 100 is complete control) [20] | also measured
Cc1nn(C)c(=O)c(-c2cccc3scnc23)c1O [Compound 1] | 0 | 0 | 0 | 0 | 0 | 0 | 0 | 0 | 0 | 0 | 0 | 0 | 0 | 0 | 0 | 0 | 0 | 0 | 0 | 0 | Ryegrass, It. plant response rating ([1]; 500 g ai/ha): 40; Kochia plant response rating ([2]; 500 g ai/ha): 0; Ragweed plant response rating ([3]; 500 g ai/ha): 10; Wheat plant response rating ([4]; 500 g ai/ha): 0; Blackgrass plant response rating ([5]; 500 g ai/ha): 10; Galium plant response rating ([6]; 500 g ai/ha): 30; Corn plant response rating ([7]; 500 g ai/ha): 0; Foxtail, Giant plant response rating ([8]; 500 g ai/ha): 0; Barnyardgrass plant response rating ([9]; 500 g ai/ha): 0; Pigweed plant response rating ([10]; 500 g ai/ha): 10; Plant response rating (0 to 100 scale), Ryegrass, It. ([11]; 500 g ai/ha): 70; Plant response rating (0 to 100 scale), Kochia ([12]; 500 g ai/ha): 0; Plant response rating (0 to 100 scale), Ragweed ([13]; 500 g ai/ha): 20; Plant response rating (0 to 100 scale), Foxtail, Giant ([14]; 500 g ai/ha): 20; Plant response rating (0 to 100 scale), Barnyardgrass ([15]; 500 g ai/ha): 20; Plant response rating (0 to 100 scale), Pigweed ([16]; 500 g ai/ha): 0
Cc1cc2c(Cl)ccc(-c3c(OC(=O)c4ccccc4)c(C)nn(C)c3=O)c2o1 [Compound 39] | 30 | 0 | 10 | 0 | 20 | 90 | 0 | 10 | 10 | 0 | 50 | 0 | 0 | 0 | 0 | 0 | 0 | 0 | 50 | 0 | Ryegrass, It. plant response rating ([1]; 31 g ai/ha): 20; Kochia plant response rating ([2]; 31 g ai/ha): 0; Ragweed plant response rating ([3]; 31 g ai/ha): 0; Wheat plant response rating ([4]; 31 g ai/ha): 0; Blackgrass plant response rating ([5]; 31 g ai/ha): 0; Galium plant response rating ([6]; 31 g ai/ha): 30; Corn plant response rating ([7]; 31 g ai/ha): 0; Foxtail, Giant plant response rating ([8]; 31 g ai/ha): 0; Barnyardgrass plant response rating ([9]; 31 g ai/ha): 0; Pigweed plant response rating ([10]; 31 g ai/ha): 0; Plant response rating (0 to 100 scale), Ryegrass, It. ([11]; 31 g ai/ha): 10; Plant response rating (0 to 100 scale), Kochia ([12]; 31 g ai/ha): 0; Plant response rating (0 to 100 scale), Ragweed ([13]; 31 g ai/ha): 0; Plant response rating (0 to 100 scale), Foxtail, Giant ([14]; 31 g ai/ha): 0; Plant response rating (0 to 100 scale), Barnyardgrass ([15]; 31 g ai/ha): 0; Plant response rating (0 to 100 scale), Pigweed ([16]; 31 g ai/ha): 0
